≈ marks a conversion by molar mass, not a printed value. Where a name gives a salt, the structure may show the parent alone.

By LD50 is commonly meant the dose expected to kill half of the subjects tested. Usually MIC stands for the smallest concentration in the dilution series that meets the test's criterion for growth inhibition. Low values mean greater potency, high ones weaker potency. One may read the pKa as the negative logarithm of the acid dissociation constant.

One data set is described as follows: Acute toxicity. The note with it: in vivo, iv, I.V.
The test system of a further data set is Salmonella sp. S.C. The experiment in a line: In vivo mouse protection test. The note with it: 48 h, read-out: PD50. The protocol: (§1) To determine the in vivo protective activity of the antibiotics against lethal infections of pathogenic bacterial origin in mice, mice were dosed twice with the individual antibiotic, with a solution or a suspension in an aqueous vehicle containing 0.5 % carboxy-methyl-cellulose (CMC), once immediately before an intraperitoneal injection of the infecting bacteria and once 4 hours after such injection. The number of survivors was determined 48 hours after infection and that data analyzed by standard probit procedures to determine PD50 values with 95% confidence limits. The following chart sets forth the protective activity of the antibiotics against a pathogenic bacterium.

For data set [1], the system named is Pseudomonas aeruginosa 1516-7. The data set is described as follows: In vivo mouse protection test. The note with it: 15167, ip, Pseudomonas aeruginosa 1516-7 i.p. infection, dosed twice (0 and 4 h), survivors at 48 hours, read-out: PD50. As to the method:
as §1

In data set [2] the test system is Escherichia coli 11775. The data set is described as follows: In vivo mouse protection test. The note with it: ip, Escherichia coli 11775 i.p. infection, dosed twice (0 and 4 h), survivors at 48 hours, read-out: PD50. The protocol:
as §1

A further data set deals with Staphylococcus aureus. The experiment in a line: In vivo mouse protection test. The note with it: ip, Staphylococcus aureus i.p. infection, dosed twice (0 and 4 h), survivors at 48 hours, read-out: PD50. The protocol:
as §1

Data set [3] relates to Pseudomonas aeruginosa 413. The experiment in a line: In vivo mouse protection test. The note with it: ip, Pseudomonas aeruginosa 413 i.p. infection, dosed twice (0 and 4 h), survivors at 48 hours, read-out: PD50. As to the method:
as §1

The subject of data set [4] is Staphylococcus aureus Gray 979. The experiment in a line: In vivo mouse protection test. The note with it: GRAY979, ip, Staphylococcus aureus Gray 979 i.p. infection, dosed twice (0 and 4 h), survivors at 48 hours, read-out: PD50. The protocol:
as §1

The next data set deals with Escherichia coli 626. The experiment in a line: In vivo mouse protection test. The note with it: ip, Escherichia coli 626 i.p. infection, dosed twice (0 and 4 h), survivors at 48 hours, read-out: PD50. The protocol: as §1
Data set [5] concerns Streptococcus pyogenes C2V. The data set is described as follows: In vivo mouse protection test. The note with it: ip, Streptococcus pyogenes C2V i.p. infection, dosed twice (0 and 4 h), survivors at 48 hours, read-out: PD50. As to the method:
as §1

The test system of another data set is Staphylococcus aureus 70. The data set is described as follows: In vitro MIC, Mueller-Hinton broth. The note with it: 24 hours, expressed as free base, tested as sulfate. In kind it is cell-based. As to the method:
(§2) In the table set forth below are test results after 24 hours incubation against representative gram positive and gram negative bacteria.

The test system of data set [6] is Staphylococcus aureus 2059. The data set is described as follows: In vitro MIC, Mueller-Hinton broth. The note with it: 24 hours, expressed as free base, tested as sulfate. In kind it is cell-based. The protocol:
as §2

The next data set deals with Klebsiella pneumoniae 18. The experiment in a line: In vitro MIC, Mueller-Hinton broth. In kind it is cell-based. The note with it: 24 hours, expressed as free base, tested as sulfate. As to the method: as §2
The subject of data set [7] is Pseudomonas aeruginosa 60. The experiment in a line: In vitro MIC, Mueller-Hinton broth. In kind it is cell-based. The note with it: 24 hours, expressed as free base, tested as sulfate. As to the method: as §2
The subject of data set [8] is Escherichia coli 11775. The data set is described as follows: In vitro MIC, Mueller-Hinton broth. In kind it is cell-based. The note with it: 24 hours, expressed as free base, tested as sulfate. As to the method: as §2
For another data set, the system named is Escherichia coli 12740. The data set is described as follows: In vitro MIC, Mueller-Hinton broth. In kind it is cell-based. The note with it: 24 hours, expressed as free base, tested as sulfate. The protocol: as §2
Data set [9] relates to Pseudomonas aeruginosa 59. The data set is described as follows: In vitro MIC, Mueller-Hinton broth. In kind it is cell-based. The note with it: 24 hours, expressed as free base, tested as sulfate. The protocol:
as §2

The test system of data set [10] is Klebsiella pneumonia 13883. The experiment in a line: In vitro MIC, Mueller-Hinton broth. In kind it is cell-based. The note with it: Klebsiella pneumoniae, 24 hours, expressed as free base, tested as sulfate. As to the method:
as §2

A further data set concerns Proteus mirabilis 8019. The experiment in a line: In vitro MIC, Mueller-Hinton broth. In kind it is cell-based. The note with it: 24 hours, expressed as free base, tested as sulfate. The protocol:
as §2

The next data set concerns Staphylococcus aureus 45. The data set is described as follows: In vitro MIC, Mueller-Hinton broth. In kind it is cell-based. The note with it: 24 hours, expressed as free base, tested as sulfate. The protocol: as §2
The test system of data set [11] is Klebsiella rhinoscleromatis 18804. The data set is described as follows: In vitro MIC, Mueller-Hinton broth. In kind it is cell-based. The note with it: Klebsiella pneumoniae, 24 hours, expressed as free base, tested as sulfate. As to the method: as §2
Data set [12] relates to Staphylococcus aureus ATCC 6538P. The experiment in a line: Disc-plate assay (bioassay potency). In kind it is cell-based. The note with it: for potency (assay against standard Antibiotic JI-20B base): vs standard Antibiotic JI-20B base, assigned potency 1000 mcg/mg. As to the method: Peak antibiotic production is determined by a disc-plate assay which uses Staphylococcus aureus ATCC 6538P as the test organism and which is performed substantially as described by Oden, et al. Antimicrobial Agents and Chemotherapy, 1963, pages 8-13.
The reference standard is Antibiotic JI-20B base having an assigned potency of 1000 mcg/mg. One (1) microgram of the standard in one (1) ml. of 0.1M phosphate buffer at pH 8.0 elicits a zonal response of 16.8± 1.5 mm. The standard Antibiotic JI-20B sulfate assays 730 mcg/mg against the standard base. Antibiotic JI-20A base and the corresponding sulfate assay 723 mcg/mg. and 527 mcg/mg., respectively, when assayed against the standard Antibiotic JI-20B base.

The nature of a further data set: pKa. In kind it is physicochemical.

As for `CNC1C(O)C(OC2C(N)CC(N)C(OC3OC(CN)C(O)C(O)C3N)C2O)OCC1(C)O` (stereo not shown) [Antibiotic JI-20A], the LD50 in the data set “Acute toxicity” was 115 mg/kg. The ED50 in the data set with Salmonella sp. S.C. came to 3 mg/kg; in [1], 50 mg/kg; in the data set on Escherichia coli 11775 [2], 4 mg/kg; with Staphylococcus aureus, 2.9 mg/kg; in data set [3], 50 mg/kg; in data set [4] it was 3 mg/kg. The values for the ED50 (in the data set with Escherichia coli 626; in data set [5]) were 15 mg/kg and 40 mg/kg, respectively. Moreover, the minimal inhibitory concentration (MIC) with Staphylococcus aureus 70 came out at 3 µg/mL (≈ 6.23 µM); in [6] it was 7.5 µg/mL (≈ 15.6 µM); with Klebsiella pneumoniae 18, 7.5 µg/mL (≈ 15.6 µM); in data set [7], 3 µg/mL (≈ 6.23 µM); against Escherichia coli 11775 [8], 0.3 µg/mL (≈ 0.623 µM); with Escherichia coli 12740 it was 0.3 µg/mL (≈ 0.623 µM). In addition, the minimal inhibitory concentration (MIC) amounted to 3 µg/mL (≈ 6.23 µM) in data set [9]; 7.05 µg/mL (≈ 14.6 µM) in data set [10]; 0.8 µg/mL (≈ 1.66 µM) in the data set with Proteus mirabilis 8019; 0.3 µg/mL (≈ 0.623 µM) with Staphylococcus aureus 45; 0.05 µg/mL (≈ 0.104 µM) in [11]. Also, the “potency (assay against standard Antibiotic JI-20B base)” value in data set [12] (listed as Antibiotic JI-20A base) was found to be 723 µg/mg. The compound further registered a pKa in “pKa” of 8.1.
Regarding `CNC1C(O)C(OC2C(N)CC(N)C(OC3OC(CN)C(O)C(O)C3N)C2O)OCC1(C)O` (stereo not shown) [Antibiotic JI-20A sulfate], in data set [12], the “potency (assay against standard Antibiotic JI-20B base)” value is 527 µg/mg.
Same read-out and setting: in the case of `CN[C@@H]1[C@@H](O)[C@@H](O[C@@H]2[C@@H](O)[C@H](O[C@H]3O[C@H](C(C)N)[C@@H](O)[C@H](O)[C@H]3N)[C@@H](N)C[C@H]2N)OC[C@]1(C)O` (stereo partly shown) [Antibiotic JI-20B sulfate] it was 730 µg/mg.
With `CN[C@@H]1[C@@H](O)[C@@H](O[C@@H]2[C@@H](O)[C@H](O[C@H]3O[C@H](C(C)N)[C@@H](O)[C@H](O)[C@H]3N)[C@@H](N)C[C@H]2N)OC[C@]1(C)O` (stereo partly shown) [Antibiotic JI-20B], the LD50 in the data set “Acute toxicity” is 115 mg/kg. The ED50 in the data set with Salmonella sp. S.C. came to 4.5 mg/kg; in data set [1], 50 mg/kg; in the data set with Escherichia coli 11775 [2] it was 8 mg/kg; with Staphylococcus aureus, 14 mg/kg; in data set [3] it was 50 mg/kg; in data set [4], 2.8 mg/kg. The ED50 in the data set with Escherichia coli 626 turned out to be 15 mg/kg; in [5], 40 mg/kg. In addition, the minimal inhibitory concentration (MIC) against Staphylococcus aureus 70 worked out at 3 µg/mL (≈ 6.05 µM); in data set [6], 7.5 µg/mL (≈ 15.1 µM); in the data set with Klebsiella pneumoniae 18, 17.5 µg/mL (≈ 35.3 µM); in data set [7], 17.5 µg/mL (≈ 35.3 µM); against Escherichia coli 11775 [8] it was 0.8 µg/mL (≈ 1.61 µM); in the data set on Escherichia coli 12740 it was 0.3 µg/mL (≈ 0.605 µM). In addition, the minimum inhibitory concentration (MIC) in data set [9] was found to be 7.5 µg/mL (≈ 15.1 µM); in data set [10], 0.08 µg/mL (≈ 0.161 µM); against Proteus mirabilis 8019, 0.8 µg/mL (≈ 1.61 µM); in the data set on Staphylococcus aureus 45, 0.3 µg/mL (≈ 0.605 µM); in data set [11] it was 0.08 µg/mL (≈ 0.161 µM). In addition, in [12] (Staphylococcus aureus, ATCC6538P, 1 microgram of standard in 1 ml 0.1M phosphate buffer pH 8.0, read-out: zonal response), the zone of inhibition at 1 µg/mL came to 16.8 ± 1.5 mm. The compound further had a pKa in the data set “pKa” of 8.1.

For the origin of these results see US4009269A, “Antibiotic compositions and methods from micromonospora purpurea JI-20” (Schering Corporation, priority 1975, dated 1977).
